This is an account of results in patent US20120270237A9, “METHODS FOR THE IDENTIFICATION OF KINASE INTERACTING MOLECULES AND FOR THE PURIFICATION OF KINASE PROTEINS” (Cellzone AG, priority 2009, published 2012).

Holding throughout (assay): Kinobeads competition binding, HL60 cell lysate
Holding throughout (set-up): endogenous in cells
Settings in all cases: 10 μM free compound

The target in one assay is PKN2 (Homo sapiens, UniProt Q16513). The method, boiled down: (§1)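 HL60 lysate (50 mg protein) pre-incubated with 10 μM free compound or 0.5% DMSO, then captured on beads bearing the immobilized compound for 2 h at 4 °C. Eluted proteins were trypsin-digested in-gel, iTRAQ-labeled and quantified by LC-MS/MS from reporter-ion peak areas relative to the DMSO control.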
The next assay concerns the target T1, NEK3 (Homo sapiens, UniProt P51956).
T1 sequence (P51956 1-506): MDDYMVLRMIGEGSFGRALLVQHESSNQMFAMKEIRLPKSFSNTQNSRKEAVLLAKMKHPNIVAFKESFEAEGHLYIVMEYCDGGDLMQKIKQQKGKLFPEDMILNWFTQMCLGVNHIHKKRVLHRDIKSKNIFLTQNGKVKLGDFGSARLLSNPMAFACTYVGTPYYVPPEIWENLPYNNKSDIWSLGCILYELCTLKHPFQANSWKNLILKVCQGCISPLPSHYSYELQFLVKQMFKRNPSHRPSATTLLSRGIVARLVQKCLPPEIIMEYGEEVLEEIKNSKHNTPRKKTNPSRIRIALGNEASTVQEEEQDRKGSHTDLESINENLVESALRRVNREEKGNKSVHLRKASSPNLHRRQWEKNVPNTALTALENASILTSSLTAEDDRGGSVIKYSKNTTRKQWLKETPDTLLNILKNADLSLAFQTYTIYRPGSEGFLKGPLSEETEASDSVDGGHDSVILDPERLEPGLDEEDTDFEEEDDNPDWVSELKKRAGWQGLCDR
The gist of the method:
as §1

In another assay the target is CK2a1 (Homo sapiens, UniProt P68400). The method, boiled down: as §1
Sequence of CK2a1 (P68400 whole entry): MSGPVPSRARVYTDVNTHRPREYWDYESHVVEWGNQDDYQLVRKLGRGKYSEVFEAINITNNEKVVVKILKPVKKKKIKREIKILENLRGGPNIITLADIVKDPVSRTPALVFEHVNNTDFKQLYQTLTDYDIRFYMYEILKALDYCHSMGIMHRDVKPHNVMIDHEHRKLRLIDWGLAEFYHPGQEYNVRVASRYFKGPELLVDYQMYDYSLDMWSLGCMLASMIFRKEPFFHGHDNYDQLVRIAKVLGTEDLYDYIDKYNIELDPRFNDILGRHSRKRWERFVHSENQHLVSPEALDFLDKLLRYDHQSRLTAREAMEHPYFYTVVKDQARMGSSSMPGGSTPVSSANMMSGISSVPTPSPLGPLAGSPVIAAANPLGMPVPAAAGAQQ
Another assay has as its target MAP3K3 (Homo sapiens, UniProt Q99759). The method, boiled down:
as §1

Another assay addresses BTK (Homo sapiens, UniProt Q06187). The gist of the method:
as §1

A further assay concerns the target MAP3K4 (Homo sapiens, UniProt Q9Y6R4). The gist of the method: as §1
The next assay has as its target JNK1 (Homo sapiens, UniProt P45983). The method, boiled down:
as §1

The next assay concerns the target PLK4 (Homo sapiens, UniProt O00444). The method, boiled down:
as §1

The target of a further assay is T2, PHKg2 (Homo sapiens, UniProt P15735).
T2 sequence (P15735 1-406): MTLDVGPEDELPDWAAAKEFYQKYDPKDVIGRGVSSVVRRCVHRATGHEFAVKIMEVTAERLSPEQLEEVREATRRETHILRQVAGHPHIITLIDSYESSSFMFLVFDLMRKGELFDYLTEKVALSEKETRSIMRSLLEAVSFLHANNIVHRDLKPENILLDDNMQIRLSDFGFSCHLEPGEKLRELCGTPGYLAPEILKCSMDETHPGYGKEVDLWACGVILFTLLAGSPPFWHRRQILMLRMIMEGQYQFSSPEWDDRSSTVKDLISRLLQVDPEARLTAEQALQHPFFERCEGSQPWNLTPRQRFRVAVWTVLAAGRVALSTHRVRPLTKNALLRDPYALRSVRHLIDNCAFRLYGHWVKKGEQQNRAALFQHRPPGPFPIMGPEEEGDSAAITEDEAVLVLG
The gist of the method: as §1

The next assay concerns the target TGFbR1 (Homo sapiens, UniProt P36897). The gist of the method:
as §1

Another assay has as its target Erk2 (Homo sapiens, UniProt P28482). The method, boiled down:
as §1

Molecules are shown by their SMILES.

Sequence of PLK4 (O00444 whole entry): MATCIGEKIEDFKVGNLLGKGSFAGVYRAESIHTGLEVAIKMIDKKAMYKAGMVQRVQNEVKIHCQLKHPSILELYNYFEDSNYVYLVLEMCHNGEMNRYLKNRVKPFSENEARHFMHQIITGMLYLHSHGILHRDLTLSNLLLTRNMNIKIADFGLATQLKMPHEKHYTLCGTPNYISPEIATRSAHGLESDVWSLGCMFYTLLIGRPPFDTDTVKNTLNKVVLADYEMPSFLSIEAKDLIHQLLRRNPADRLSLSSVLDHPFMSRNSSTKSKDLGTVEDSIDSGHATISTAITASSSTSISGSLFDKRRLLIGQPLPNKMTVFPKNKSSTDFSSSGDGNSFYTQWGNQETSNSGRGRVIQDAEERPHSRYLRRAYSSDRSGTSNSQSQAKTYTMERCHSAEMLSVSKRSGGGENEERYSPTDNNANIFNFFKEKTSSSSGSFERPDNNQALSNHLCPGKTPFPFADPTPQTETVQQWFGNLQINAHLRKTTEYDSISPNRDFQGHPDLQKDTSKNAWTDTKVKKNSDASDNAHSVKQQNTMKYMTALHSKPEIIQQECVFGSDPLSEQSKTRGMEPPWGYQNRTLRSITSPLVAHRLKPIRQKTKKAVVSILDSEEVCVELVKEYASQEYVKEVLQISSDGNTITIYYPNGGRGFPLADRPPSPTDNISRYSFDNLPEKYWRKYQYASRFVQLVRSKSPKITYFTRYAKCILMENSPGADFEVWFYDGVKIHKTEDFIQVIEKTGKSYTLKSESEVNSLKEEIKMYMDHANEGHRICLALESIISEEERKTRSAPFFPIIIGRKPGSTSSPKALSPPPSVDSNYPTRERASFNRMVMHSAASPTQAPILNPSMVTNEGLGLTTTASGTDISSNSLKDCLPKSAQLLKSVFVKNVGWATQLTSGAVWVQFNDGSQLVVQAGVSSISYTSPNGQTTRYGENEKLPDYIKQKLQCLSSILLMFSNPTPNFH
Sequence of TGFbR1 (P36897 34-503): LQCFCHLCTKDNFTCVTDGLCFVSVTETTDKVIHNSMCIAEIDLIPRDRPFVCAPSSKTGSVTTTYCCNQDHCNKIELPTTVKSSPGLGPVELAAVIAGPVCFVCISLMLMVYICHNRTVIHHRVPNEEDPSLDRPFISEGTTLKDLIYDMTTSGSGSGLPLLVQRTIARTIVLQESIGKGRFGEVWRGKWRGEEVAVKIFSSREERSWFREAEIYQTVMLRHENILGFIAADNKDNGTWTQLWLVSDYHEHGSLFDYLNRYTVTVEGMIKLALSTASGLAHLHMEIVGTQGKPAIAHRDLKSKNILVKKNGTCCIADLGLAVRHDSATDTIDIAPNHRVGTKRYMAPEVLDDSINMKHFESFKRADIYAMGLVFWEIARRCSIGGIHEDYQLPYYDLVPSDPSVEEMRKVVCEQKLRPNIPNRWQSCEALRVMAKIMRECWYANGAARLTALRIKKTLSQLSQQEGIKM
Sequence of MAP3K4 (Q9Y6R4 whole entry): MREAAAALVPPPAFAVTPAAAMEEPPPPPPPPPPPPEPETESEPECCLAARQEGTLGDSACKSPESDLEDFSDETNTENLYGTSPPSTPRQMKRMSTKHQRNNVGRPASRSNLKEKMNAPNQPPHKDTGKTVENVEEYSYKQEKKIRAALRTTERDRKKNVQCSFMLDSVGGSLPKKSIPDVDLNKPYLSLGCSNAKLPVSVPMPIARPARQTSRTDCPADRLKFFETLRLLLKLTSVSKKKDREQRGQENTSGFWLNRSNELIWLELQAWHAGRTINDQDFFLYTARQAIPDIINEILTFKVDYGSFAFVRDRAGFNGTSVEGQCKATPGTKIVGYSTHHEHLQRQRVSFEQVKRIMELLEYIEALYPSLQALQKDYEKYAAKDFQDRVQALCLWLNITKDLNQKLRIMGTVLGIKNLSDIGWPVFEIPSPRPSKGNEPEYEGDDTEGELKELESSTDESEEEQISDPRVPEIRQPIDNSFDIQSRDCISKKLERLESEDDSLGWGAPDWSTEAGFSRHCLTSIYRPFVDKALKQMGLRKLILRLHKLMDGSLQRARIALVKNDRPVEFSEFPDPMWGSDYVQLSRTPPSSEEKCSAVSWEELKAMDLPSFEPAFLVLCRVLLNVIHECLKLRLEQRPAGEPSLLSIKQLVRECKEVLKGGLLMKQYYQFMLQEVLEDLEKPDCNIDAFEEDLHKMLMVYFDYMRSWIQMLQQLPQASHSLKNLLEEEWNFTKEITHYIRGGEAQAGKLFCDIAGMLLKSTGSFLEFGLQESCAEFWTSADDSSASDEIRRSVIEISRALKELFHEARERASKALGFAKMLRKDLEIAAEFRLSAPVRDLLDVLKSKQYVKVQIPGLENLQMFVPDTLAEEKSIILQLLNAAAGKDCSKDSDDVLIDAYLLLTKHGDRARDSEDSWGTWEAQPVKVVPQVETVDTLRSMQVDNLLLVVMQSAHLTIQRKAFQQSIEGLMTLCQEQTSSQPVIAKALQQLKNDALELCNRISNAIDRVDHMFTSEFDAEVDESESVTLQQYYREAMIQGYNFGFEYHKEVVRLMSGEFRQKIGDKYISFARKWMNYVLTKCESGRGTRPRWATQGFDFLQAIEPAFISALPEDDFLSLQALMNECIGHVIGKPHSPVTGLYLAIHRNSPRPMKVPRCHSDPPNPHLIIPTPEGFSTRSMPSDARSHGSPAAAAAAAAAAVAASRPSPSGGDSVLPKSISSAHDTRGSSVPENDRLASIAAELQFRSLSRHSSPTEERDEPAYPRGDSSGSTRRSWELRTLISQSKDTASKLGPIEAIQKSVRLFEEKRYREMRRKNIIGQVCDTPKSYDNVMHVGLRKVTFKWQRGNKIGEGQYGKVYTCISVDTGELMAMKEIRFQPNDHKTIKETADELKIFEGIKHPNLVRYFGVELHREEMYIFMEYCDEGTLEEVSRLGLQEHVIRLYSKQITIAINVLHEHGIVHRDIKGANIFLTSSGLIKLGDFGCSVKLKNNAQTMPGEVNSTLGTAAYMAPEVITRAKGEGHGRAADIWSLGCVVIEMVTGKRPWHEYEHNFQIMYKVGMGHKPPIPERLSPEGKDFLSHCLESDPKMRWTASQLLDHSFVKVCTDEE
Sequence of BTK (Q06187 whole entry): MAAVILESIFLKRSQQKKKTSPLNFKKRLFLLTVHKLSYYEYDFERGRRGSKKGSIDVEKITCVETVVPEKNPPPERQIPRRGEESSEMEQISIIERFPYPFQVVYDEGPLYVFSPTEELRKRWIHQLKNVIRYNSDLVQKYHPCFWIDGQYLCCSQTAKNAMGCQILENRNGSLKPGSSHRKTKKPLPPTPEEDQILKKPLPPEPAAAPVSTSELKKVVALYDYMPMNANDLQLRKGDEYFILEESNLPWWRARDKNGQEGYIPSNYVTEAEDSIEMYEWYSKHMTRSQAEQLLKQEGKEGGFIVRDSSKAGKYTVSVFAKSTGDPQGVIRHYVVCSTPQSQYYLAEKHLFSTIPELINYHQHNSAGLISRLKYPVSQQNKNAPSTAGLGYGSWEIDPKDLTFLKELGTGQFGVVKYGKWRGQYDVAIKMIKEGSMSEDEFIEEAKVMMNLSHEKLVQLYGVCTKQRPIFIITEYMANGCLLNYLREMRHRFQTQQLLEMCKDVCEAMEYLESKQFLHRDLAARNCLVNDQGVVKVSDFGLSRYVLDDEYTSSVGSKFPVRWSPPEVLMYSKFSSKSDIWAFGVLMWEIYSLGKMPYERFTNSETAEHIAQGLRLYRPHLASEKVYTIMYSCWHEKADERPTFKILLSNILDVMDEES
Sequence of JNK1 (P45983 whole entry): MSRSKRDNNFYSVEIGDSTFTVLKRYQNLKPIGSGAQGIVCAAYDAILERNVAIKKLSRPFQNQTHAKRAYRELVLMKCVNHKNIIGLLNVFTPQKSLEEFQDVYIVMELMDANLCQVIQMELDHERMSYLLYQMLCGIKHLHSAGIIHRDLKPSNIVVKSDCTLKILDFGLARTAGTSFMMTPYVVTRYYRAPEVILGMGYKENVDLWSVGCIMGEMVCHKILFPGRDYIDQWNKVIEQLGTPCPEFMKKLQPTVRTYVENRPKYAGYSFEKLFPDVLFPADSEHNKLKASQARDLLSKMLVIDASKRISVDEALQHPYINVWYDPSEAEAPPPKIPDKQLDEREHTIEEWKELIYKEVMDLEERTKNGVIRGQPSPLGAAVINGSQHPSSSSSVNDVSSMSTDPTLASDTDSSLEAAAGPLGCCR
Sequence of Erk2 (P28482 whole entry): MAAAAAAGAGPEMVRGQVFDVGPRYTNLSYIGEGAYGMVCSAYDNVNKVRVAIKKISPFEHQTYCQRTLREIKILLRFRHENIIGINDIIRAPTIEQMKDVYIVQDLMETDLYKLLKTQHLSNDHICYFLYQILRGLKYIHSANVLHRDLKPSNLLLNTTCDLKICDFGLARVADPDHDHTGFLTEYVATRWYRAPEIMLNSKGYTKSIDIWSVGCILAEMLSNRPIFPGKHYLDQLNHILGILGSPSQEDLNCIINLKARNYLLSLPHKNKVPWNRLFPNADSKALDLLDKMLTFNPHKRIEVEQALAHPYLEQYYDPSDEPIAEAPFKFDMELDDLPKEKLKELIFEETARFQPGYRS

For the compound `CS(=O)(=O)Nc1ccccc1Nc1nc(Nc2cccc(OCCN)c2)ncc1Cl` [CZC31326, N-(2-(2-(3-(2-aminoethoxy)phenylamino)-5-chloropyrimidin-4-ylamino)phenyl)methanesulfonamide], the inhibition at 10 µM on PKN2 is 93.9%; on NEK3, 97%; at CK2a1, 97.9%; at MAP3K3, 97.6%; at MAP3K4, 97.2%; on PLK4, 91.7%. The results for the inhibition at 10 µM on PHKg2, at TGFbR1 and on Erk2 were 96.6%, 95.6% and 75.8%, respectively. For the same compound, the Competition % at BTK was 97.1%; on JNK1, 88.8%.

In general, inhibition refers to the drop in the measured response relative to a control, in per cent. Low values mean a response near the control, high ones a response far below the control.
